# Experimental data reported in patent US7807701B2, “Dibenzylamine compounds and pharmaceutical use thereof” (Japan Tobacco Inc., priority 2002, dated 2010).
# Where a name gives a salt, the structure may show the parent alone.
# Biological target: T1, CETP (Homo sapiens, UniProt P11597)
# T1 construct: The donor lipoprotein obtained above was added to plasma of healthy subject; from tissue; host or cells: whole plasma of healthy subject
# T1 sequence (P11597 18-493): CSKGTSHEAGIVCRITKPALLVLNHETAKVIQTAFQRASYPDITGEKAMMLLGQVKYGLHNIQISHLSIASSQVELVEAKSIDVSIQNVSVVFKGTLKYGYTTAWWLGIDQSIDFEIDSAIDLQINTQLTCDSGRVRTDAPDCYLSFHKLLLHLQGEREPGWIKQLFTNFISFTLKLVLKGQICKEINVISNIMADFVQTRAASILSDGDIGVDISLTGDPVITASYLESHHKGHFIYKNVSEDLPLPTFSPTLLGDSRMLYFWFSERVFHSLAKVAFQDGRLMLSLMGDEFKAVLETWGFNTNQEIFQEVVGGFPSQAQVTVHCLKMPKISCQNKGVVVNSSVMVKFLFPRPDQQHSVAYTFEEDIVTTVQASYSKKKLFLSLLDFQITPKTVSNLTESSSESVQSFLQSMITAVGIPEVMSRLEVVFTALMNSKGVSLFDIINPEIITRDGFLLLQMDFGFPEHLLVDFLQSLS
# Assay: Inhibitory effect in vitro on CETP activity in total plasma
# Format: biochemical
# Details: plasma of healthy subject with [3H]CE-HDL3, 37° C., 4 hr; average values
# Method: Potassium bromide (KBr) was added to plasma (40 mL) of healthy subject and the mixture was adjusted to have a specific density d=1.125 g/mL. The mixture was subjected to density gradient centrifugation (227,000×g, 4° C., 17 hr) and a fraction showing a specific density of d>1.125 g/mL (HDL3 fraction) was harvested. The obtained fraction was dialyzed against PBS solution [10 mmol/L Na2HPO4; 10 mmol/L NaH2PO4; 0.15 mol/L NaCl; […] (pH 7.4)]. Then, tritium-labeled cholesterol (37 MBq) was dissolved in 95% ethanol, gradually added to the above-mentioned HDL3 fraction with stirring and incubated at 37° C. for 18 hr. [By this operation, tritium-labeled cholesterol was esterified by the action of lecithin acyl transferase (LCAT) present on the HDL3 surface and taken up into HDL3 as tritium-labeled cholesteryl ester ([^3H]CE)]. After incubation, KBr was added, the mixture was adjusted to have a specific density d=1.21 g/mL, subjected to density gradient centrifugation (227,000×g, 4° C., 17 hr) and a fraction of specific density […] was harvested. The obtained fraction was dialyzed against the aforementioned PBS solution to give HDL3 incorporating [^3H]CE ([^3H]CE-HDL3, specific density: 1.125<d<1.21, specific activity: 10,000 dpm/μL), which was used as a donor lipoprotein.
# The donor lipoprotein obtained above was added to plasma of healthy subject to prepare a [^3H]CE-HDL3-containing plasma (1,000 dpm/μL). The compound was dissolved in dimethyl formamide. A solution of the compound or a solvent alone (2 μL) and the [^3H]CE-HDL3-containing plasma (100 μL) were added into a microtube, and this was incubated at 37° C. or 4° C. for 4 hr. After ice-cooling, TBS solution [100 μL, 20 mmol/L Tris; 0.15 mol/L NaCl (pH 7.4)] containing 1 mol/L magnesium chloride and 2% dextran sulfate was added to each microtube and the mixture was thoroughly stirred. After keeping at 4° C. for 30 min, the mixture was centrifuged (10,000×g, 4° C., 10 min), and the radioactivity in the obtained supernatant (HDL fraction) was measured with a scintillation counter. […] The concentration of the compound necessary for inhibiting the CETP activity by 50% was calculated as an IC50 value.
row,IC50 [µM],Structure (SMILES)
1,0.19,"CCN(CC1CCCC1)c1cc2c(cc1CN(Cc1cc(C(F)(F)F)cc(C(F)(F)F)c1)c1nnn(CCO)n1)CCC2 [Example 73, 2-(5-{N-[3,5-bis(trifluoromethyl)benzyl]-N-[6-(N′-cyclopentylmethyl-N′-ethylamino)indan-5-ylmethyl]amino}tetrazol-2-yl)ethanol hydrochloride]"
2,0.12,"CCN(C[C@H]1CC[C@H](CO)CC1)c1cc(C(F)(F)F)c(C)cc1CN(Cc1cc(C(F)(F)F)cc(C(F)(F)F)c1)c1nnn(C)n1 [Example 141, trans-(4-{[N-(2-{[N′-[3,5-bis(trifluoromethyl)benzyl]-N′-(2-methyl-2H-tetrazol-5-yl)amino]methyl}-4-methyl-5-trifluoromethylphenyl)-N-ethylamino]methyl}cyclohexyl)methanol hydrochloride]"
3,0.34,"CCN(C[C@H]1CC[C@H](C(=O)O)CC1)c1cc2c(cc1CN(Cc1cc(C(F)(F)F)cc(C(F)(F)F)c1)c1ncn(C)n1)CCCC2 [Example 69, trans-4-{[N-(3-{[N′-[3,5-bis(trifluoromethyl)benzyl]-N′-(1-methyl-1H-[1,2,4]triazol-3-yl)amino]methyl}-5,6,7,8-tetrahydronaphthalen-2-yl)-N-ethylamino]methyl}cyclohexanecarboxylic acid hydrochloride]"
4,0.54,"CCN(CCCCC(=O)O)c1cc2c(cc1CN(Cc1cc(C#N)cc(C(F)(F)F)c1)c1ncn(C)n1)CCCC2 [Example 77, 5-[N-(3-{[N′-(3-cyano-5-trifluoromethylbenzyl)-N′-(1-methyl-1H-[1,2,4]triazol-3-yl)amino]methyl}-5,6,7,8-tetrahydronaphthalen-2-yl)-N-ethylamino]pentanoic acid hydrochloride]"
5,0.29,"CCN(CCCCC(=O)O)c1cc2c(cc1CN(Cc1cc(C(F)(F)F)cc(C(F)(F)F)c1)c1ncn(C)n1)CCCC2 [Example 76, 5-[N-(3-{[N′-[3,5-bis(trifluoromethyl)benzyl]-N′-(1-methyl-1H-[1,2,4]triazol-3-yl)amino]methyl}-5,6,7,8-tetrahydronaphthalen-2-yl)-N-ethylamino]pentanoic acid hydrochloride]"
6,0.59,"CCN(C[C@H]1CC[C@H](C(=O)O)CC1)c1cc2c(cc1CN(Cc1cc(C(F)(F)F)cc(C(F)(F)F)c1)c1noc(C)n1)CCC2 [Example 82, trans-4-{[N-(6-{[N′-[3,5-bis(trifluoromethyl)benzyl]-N′-(5-methyl-[1,2,4]oxadiazol-3-yl)amino]methyl}indan-5-yl)-N-ethylamino]methyl}cyclohexanecarboxylic acid]"
7,0.13,"CCN(C[C@H]1CC[C@H](CO)CC1)c1ccc(OC(F)(F)F)cc1CN(Cc1cc(C(F)(F)F)cc(C(F)(F)F)c1)c1nnn(C)n1 [Example 119, trans-(4-{[N-(2-{[N′-[3,5-bis(trifluoromethyl)benzyl]-N′-(2-methyl-2H-tetrazol-5-yl)amino]methyl}-4-trifluoromethoxyphenyl)-N-ethylamino]methyl}cyclohexyl)methanol hydrochloride]"
8,0.32,"CCN(CCCCC(=O)O)c1cc2c(cc1CN(Cc1cc(C(F)(F)F)cc(C(F)(F)F)c1)c1cc(C)no1)CCCC2 [Example 78, 5-[N-(3-{[N′-[3,5-bis(trifluoromethyl)benzyl]-N′-(3-methylisoxazol-5-yl)amino]methyl}-5,6,7,8-tetrahydronaphthalen-2-yl)-N-ethylamino]pentanoic acid hydrochloride]"

# Further lines, the compound ahead of its results:
row,Structure (SMILES),IC50 [µM]
1,"CCN(CC1CCCC1)c1cc2c(cc1CN(Cc1cc(C(F)(F)F)cc(C(F)(F)F)c1)c1nnn(C)n1)CCC2 [Example 4, N-[3,5-bis(trifluoromethyl)benzyl]-N-[6-(N′-cyclopentylmethyl-N′-ethylamino)indan-5-ylmethyl]-(2-methyl-2H-tetrazol-5-yl)amine hydrochloride]",0.18
2,"CCN(C[C@H]1CC[C@H](C(=O)O)CC1)c1cc2c(cc1CN(Cc1cc(C#N)cc(C(F)(F)F)c1)c1ccn(C)n1)CCCC2 [Example 45, trans-4-{[N-(3-{[N′-(3-cyano-5-trifluoromethylbenzyl)-N′-(1-methyl-1H-pyrazol-3-yl)amino]methyl}-5,6,7,8-tetrahydronaphthalen-2-yl)-N-ethylamino]methyl}cyclohexanecarboxylic acid hydrochloride]",0.49
3,"CCN(CC1CCCC1)c1cc2c(cc1CN(Cc1cc(C(F)(F)F)cc(C(F)(F)F)c1)c1cc(C)no1)CCC2 [Example 26, N-[3,5-bis(trifluoromethyl)benzyl]-N-[6-(N′-cyclopentylmethyl-N′-ethylamino)indan-5-ylmethyl]-(3-methylisoxazol-5-yl)amine hydrochloride]",0.47
4,"CCN(CC1CCCC1)c1cc2c(cc1CN(Cc1cc(C#N)cc(C(F)(F)F)c1)c1nnn(C)n1)CCC2 [Example 10, 3-{[N-[6-(N′-cyclopentylmethyl-N′-ethylamino)indan-5-ylmethyl]-N-(2-methyl-2H-tetrazol-5-yl)amino]methyl}-5-trifluoromethylbenzonitrile]",0.23
5,"CCN(CC1CCCC1)c1ccc(C(F)(F)F)cc1CN(Cc1cc(C(F)(F)F)cc(C(F)(F)F)c1)c1nnn(C)n1 [Example 33, N-[3,5-bis(trifluoromethyl)benzyl]-N-[2-(N′-cyclopentylmethyl-N′-ethylamino)-5-trifluoromethylbenzyl]-(2-methyl-2H-tetrazol-5-yl)amine hydrochloride]",0.56
6,"CCN(C[C@H]1CC[C@H](C(=O)O)CC1)c1cc2c(cc1CN(Cc1cc(C(F)(F)F)cc(C(F)(F)F)c1)c1nnn(C)n1)CCCC2 [Example 67, trans-4-{[N-(3-{[N′-[3,5-bis(trifluoromethyl)benzyl]-N′-(2-methyl-2H-tetrazol-5-yl)amino]methyl}-5,6,7,8-tetrahydronaphthalen-2-yl)-N-ethylamino]methyl}cyclohexanecarboxylic acid hydrochloride]",0.26
7,"CCN(C[C@H]1CC[C@H](C(=O)O)CC1)c1cc2c(cc1CN(Cc1cc(C#N)cc(C(F)(F)F)c1)c1nnn(C)n1)CCC2 [Example 52, trans-4-{[N-(6-{[N′-(3-cyano-5-trifluoromethylbenzyl)-N′-(2-methyl-2H-tetrazol-5-yl)amino]methyl}indan-5-yl)-N-ethylamino]methyl}cyclohexanecarboxylic acid hydrochloride]",0.37
8,"CCN(C[C@H]1CC[C@H](C(=O)O)CC1)c1cc2c(cc1CN(Cc1cc(C(F)(F)F)cc(C(F)(F)F)c1)c1ncn(C)n1)CCC2 [Example 59, trans-4-{[N-(6-{[N′-[3,5-bis(trifluoromethyl)benzyl]-N′-(1-methyl-1H-[1,2,4]triazol-3-yl)amino]methyl}indan-5-yl)-N-ethylamino]methyl}cyclohexanecarboxylic acid hydrochloride]",0.43
9,"CCN(C[C@H]1CC[C@H](C(=O)O)CC1)c1cc2c(cc1CN(Cc1cc(C(F)(F)F)cc(C(F)(F)F)c1)c1cc(C)no1)CCC2 [Example 53, trans-4-{[N-(6-{[N′-[3,5-bis(trifluoromethyl)benzyl]-N′-(3-methylisoxazol-5-yl)amino]methyl}indan-5-yl)-N-ethylamino]methyl}cyclohexanecarboxylic acid hydrochloride]",0.7
10,"CCN(CC1CCCC1)c1cc2c(cc1CN(Cc1cc(C(F)(F)F)cc(C(F)(F)F)c1)c1ncn(C)n1)CCC2 [Example 12, N-[3,5-bis(trifluoromethyl)benzyl]-N-[6-(N′-cyclopentylmethyl-N′-ethylamino)indan-5-ylmethyl]-(1-methyl-1H-[1,2,4]triazol-3-yl)amine]",0.25
11,"CCN(CC1CCCC1)c1cc2c(cc1CN(Cc1cc(C(F)(F)F)cc(C(F)(F)F)c1)c1ccn(C)n1)CCC2 [Example 27, N-[3,5-bis(trifluoromethyl)benzyl]-N-[6-(N′-cyclopentylmethyl-N′-ethylamino)indan-5-ylmethyl]-(1-methyl-1H-pyrazol-3-yl)amine hydrochloride]",0.58
